Results published in patent US20160355483A1, “COMPOUND BINDING TO PPARG BUT NOT ACTING AS PROMOTER AND PHARMACEUTICAL COMPOSITION FOR TREATING PPARG-RELATED DISEASES CONTAINING SAME AS ACTIVE INGREDIENT” (Hyundai Pharm Co., Ltd., priority 2014, published 2016).

biological target: T1, PPARG (peroxisome proliferator activated receptor-gamma), GST-PPARG-LBD (Homo sapiens, UniProt P37231); assay: LanthaScreen TR-FRET PPARG Competitive Binding Assay; set-up: key: “+” indicates the degree of the binding activity, and as the number of “+” increases, the binding activity is stronger; ++: “+” indicates the degree of the binding activity, and as the number of “+” increases, the binding activity is stronger; +++: “+” indicates the degree of the binding activity, and as the number of “+” increases, the binding activity is stronger; ++++: “+” indicates the degree of the binding activity, and as the number of “+” increases, the binding activity is stronger; conditions: degree of binding activity
T1 construct: 15 μL of 5 nM GST-PPARG-LBD and 5 nM Tb-GST-antibody were added; purchased Invitrogen PV4894
T1 sequence (P37231 238-503 limits assumed): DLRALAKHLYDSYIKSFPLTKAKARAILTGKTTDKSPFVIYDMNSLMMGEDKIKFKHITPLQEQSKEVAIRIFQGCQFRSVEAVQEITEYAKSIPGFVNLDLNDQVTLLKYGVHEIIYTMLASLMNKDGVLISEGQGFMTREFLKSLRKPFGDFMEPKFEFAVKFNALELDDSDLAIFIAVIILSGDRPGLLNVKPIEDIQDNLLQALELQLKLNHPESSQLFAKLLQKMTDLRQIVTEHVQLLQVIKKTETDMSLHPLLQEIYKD
Procedure: The following experiment was performed to evaluate the PPARG (peroxisome proliferator activated receptor-gamma) binding capacity and transcriptional activity of the compounds prepared in the examples of the invention. For the experiment, LanthaScreen™ TR-FRET PPARG Competitive Binding Assay Kit (PV4894, Invitrogen) was used according to the manufacturer's instruction. […] The mixture was loaded in a 384-well plate (Greiner, 784075) by 20 μL per well, followed by reaction at room temperature for 1 hour. Upon completion of the reaction, fluorescence value was measured by using Flexstation 3 (Molecular Devices) with time-resolved fluorescence (RFU) mode (excitation 1: 340 nm, emission 1: 518 nm, excitation 2: 340 nm, emission 2: 488 nm, integration delay 50 μs, integration 400 μs). The results were calculated by using 518 nm RFUs/488 nm RFUs ratio. The activity of the compounds of the invention was compared with that of the vehicle, which was calculated by ratio according to the formula [100%−compound of the example ratio/vehicle ratio]. At this time, the binding activity ratio to rosiglitazone was compared.

Binding assay (1 μLM), ++:
NC(=O)c1ccccc1-c1ccc(CN2CCOc3cc(C(=O)NCc4ccccc4)ccc32)cc1 [Example 100, N-benzyl-4-((2′-carbamoyl-[1,1′-biphenyl]-4-yl)methyl)-3,4-dihydro-2H-benzo[b][1,4]oxazine-7-carboxamide]
O=C(NCCc1ccccc1)c1ccc2c(c1)OCCN2Cc1ccc(-c2ccccc2C(=O)O)cc1 [Example 68, 4′-((7-(phenethylcarbamoyl)-2H-benzo[b][1,4]oxazine-4(3H)-yl)methyl)-[1,1′-biphenyl]-2-carboxylic acid]
NC(=O)c1ccccc1-c1ccc(CN2CCOc3cc(C(=O)NCc4ccccc4Br)ccc32)cc1 [Example 101, N-(2-bromobenzyl)-4-((2′-carbamoyl-[1,1′-biphenyl]-4-yl)methyl)-3,4-dihydro-2H-benzo[b][1,4]oxazine-7-carboxamide]
C[C@@H](NC(=O)c1ccc2c(c1)OCCN2Cc1ccc(-c2ccccc2C(N)=O)cc1)c1ccc(C#N)cc1 [Example 94, (R)-4-((2′-carbamoyl-[1,1′-biphenyl]-4-yl)methyl)-N-(1-(4-cyanophenyl)ethyl)-3,4-dihydro-2H-benzo[b][1,4]oxazine-7-carboxamide]
Cc1ccc([C@H](C)NC(=O)c2ccc3c(c2)OCCN3Cc2ccccc2-c2ccc(C(N)=O)cc2)cc1F [Example 148, (S)-4-((4′-carbamoyl-[1,1′-biphenyl]-2-yl)methyl)-N-(1-(3-fluoro-4-methylphenyl)ethyl)-3,4-dihydro-2H-benzo[b][1,4]oxazine-7-carboxamide]

Binding assay (1 μLM), ++++:
O=C(NCc1ccccc1)c1ccc2c(c1)CCCN2Cc1ccc(-c2ccccc2C(=O)O)cc1 [Example 28, 4′-((6-(benzylcarbamoyl)-3,4-dihydroquinoline-1(2H)-yl)methyl)-[1,1′-biphenyl]-2-carboxylic acid]
C[C@H](NC(=O)c1ccc2c(c1)CCCN2Cc1cccc(-c2ccccc2C(=O)O)c1F)c1ccc2ccccc2c1 [Example 129, (S)-2′-fluoro-3′-((6-((1-(naphthalene-2-yl)ethyl)carbamoyl)-3,4-dihydroquinoline-1(28)-yl)methyl)-[1,1′-biphenyl]-2-carboxylic acid]
C[C@H](NC(=O)c1ccc2c(c1)CCCN2Cc1ccc(-c2ccccc2C(=O)O)cc1)c1ccc(Br)cc1 [Example 7, (S)-4′-((6-((1-(4-bromophenyl)ethyl)carbamoyl)-3,4-dihydroquinoline-1(2H)-yl)methyl)-[1,1′-biphenyl]-2-caboxylic acid]
C[C@H](NC(=O)c1ccc2c(c1)CCCN2Cc1ccc(-c2ccccc2C(=O)O)cc1)c1ccc(OC(F)(F)F)cc1 [Example 11, (s)-4′-((6-((1-(4-(trifluoromethoxy)phenyl)ethyl)carbamoyl)-3,4-dihydroquinoline-1(2H)-yl)methyl)-[1,1′-biphenyl]-2-carboxylic acid]
C[C@H](NC(=O)c1ccc2c(c1)CCCN2Cc1cccc(-c2ccccc2C(=O)O)c1)c1ccc2ccccc2c1 [Example 120, (S)-3′-((6-((1-(naphthalene-2-yl)ethyl)carbamoyl)-3,4-dihydroquinoline-1(2H)-yl)methyl)-[1,1′-biphenyl]-2-carboxylic acid]

Binding assay (1 μLM), +++:
C[C@H](NC(=O)c1ccc2c(c1)OCCN2Cc1ccccc1-c1ccc(C(N)=O)cc1)c1ccc2ccccc2c1 [Example 151, (S)-4-((4′-carbamoyl-[1,1′-biphenyl]-2-yl)methyl)-N-(1-(naphthalene-2-yl)ethyl)-3,4-dihydro-2H-benzo[b][1,4]oxazine-7-carboxamide]
C[C@H](NC(=O)c1ccc2c(c1)CCCN2Cc1ccc(-c2ccccc2C(=O)O)cc1)c1ccccc1C(F)(F)F [Example 25, (S)-4′-((6-((1-(2-(trifluoromethyl)phenyl)ethyl)carbamoyl)-3,4-dihydroquinoline-1(2)-yl)methyl)-[1,1′-biphenyl]-2-carboxylic acid]
C[C@H](NC(=O)c1ccc2c(c1)OCCN2Cc1ccc(-c2ccccc2C(N)=O)cc1)c1ccc(SC(F)(F)F)cc1 [Example 99, (S)-4-((2′-carbamoyl-[1,1′-biphenyl]-4-yl)methyl)-N-(1-(4-((trifluoromethyl)thio)phenyl)ethyl)-3,4-dihydro-2H-benzo[b][1,4]oxazine-7-carboxamide]
O=C(NCc1ccc([N+](=O)[O-])cc1)c1ccc2c(c1)CCCN2Cc1ccc(-c2ccccc2C(=O)O)cc1 [Example 8, 4′-((6-((4-nitrobenzyl)carbamoyl)-3,4-dihydroquinoline-1(2H)-yl)methyl)-[1,1′-biphenyl]-2-carboxylic acid]
Cc1ccc([C@H](C)NC(=O)c2ccc3c(c2)CCCN3Cc2ccc(-c3ccccc3C(N)=O)cc2F)cc1F [Example 114, (S)-1-((2′-carbamoyl-3-fluoro-[1,1′-biphenyl]-4-yl)methyl)-N-(1-(3-fluoro-4-methylphenyl)ethyl)-1,2,3,4-tetrahydroquinoline-6-carboxamide]
Cc1ccc([C@H](C)NC(=O)c2ccc3c(c2)CCCN3Cc2cccc(-c3ccccc3C(N)=O)c2)cc1F [Example 125, (S)-1-((2′-carbamoyl-[1,1′-biphenyl]-3-yl)methyl)-N-(1-(3-fluoro-4-methylphenyl)ethyl)-1,2,3,4-tetrahydroquinoline-6-carboxamide]
C[C@H](NC(=O)c1ccc2c(c1)CCCN2Cc1cccc(-c2ccccc2C(N)=O)c1F)c1ccccc1 [Example 127, (S)-1-((2′-carbamoyl-2-fluoro-[1,1′-biphenyl]-3-yl)methyl)-N-(1-phenylethyl)-1,2,3,4-tetrahydroquinoline-6-carboxamide]
COc1ccccc1[C@H](C)NC(=O)c1ccc2c(c1)CCCN2Cc1ccc(-c2ccccc2C(=O)O)cc1 [Example 23, (S)-4′-((6-((1-(2-methoxyphenyl)ethyl)carbamoyl)-3,4-dihydroquinoline-1(2H)-yl)methyl)-[1,1′-biphenyl]-2-carboxylic acid]
C[C@H](NC(=O)c1ccc2c(c1)CCCN2Cc1ccc(-c2ccccc2C(=O)O)cc1)c1cccc(F)c1 [Example 17, (S)-4′-((6-((1-(3-fluorophenyl)ethyl)carbamoyl)-3,4-dihydroquinoline-1(2H)-yl)methyl)-[1,1′-biphenyl]-2-caboxylic acid]
C[C@H](NC(=O)c1ccc2c(c1)OCCN2Cc1ccc(-c2ccccc2C(=O)O)cc1)c1ccc(SC(F)(F)F)cc1 [Example 77, (S)-4′-((7-((1-(4-((trifluoromethyl)thio)phenyl)ethyl)carbamoyl)-2H-benzo[b][1,4]oxazine-4(3H)-yl)methyl)-[1,1′-biphenyl]-2-carboxylic acid]
Cc1ccc([C@H](C)NC(=O)c2ccc3c(c2)CCCN3Cc2cc(-c3ccccc3C(N)=O)ccc2F)cc1F [Example 141, (S)-1-((2′-carbamoyl-4-fluoro-[1,1′-biphenyl]-3-yl)methyl)-N-(1-(3-fluoro-4-methylphenyl)ethyl)-1,2,3,4-tetrahydroquinoline-6-carboxamide]

Binding assay (1 μLM), +:
NC(=O)c1ccccc1-c1ccc(CN2CCOc3cc(C(=O)NCc4ccncc4)ccc32)cc1 [Example 98, 4-((2′-carbamoyl-[1,1′-biphonyl]-4-yl)methyl)-N-(pyridine-4-ylmethyl)-3,4-dihydro-2H-benzo[b][1,4]oxazine-7-carboxamide]
O=C(NCc1ccc(Br)cc1)c1ccc2c(c1)OCCN2Cc1ccc(-c2ccccc2C(=O)O)cc1 [Example 73, 4′-((7-((4-bromobenzyl)carbamoyl)-2H-benzo[b][1,4]oxazine-4(3H)-yl)methyl)-[1,1′-biphenyl]-2-carboxylic acid]
O=C(NCc1ccccn1)c1ccc2c(c1)OCCN2Cc1ccc(-c2ccccc2C(=O)O)cc1 [Example 88, 4′-((7-((pyridine-2-ylmethyl)carbamoyl)-2H-benzo[b][1,4]oxazine-4(3H)-yl)methyl)-[1,1′-biphenyl]-2-carboxylic acid]
O=C(NCc1ccc([N+](=O)[O-])cc1)c1ccc2c(c1)OCCN2Cc1ccc(-c2ccccc2C(=O)O)cc1 [Example 66, 4′-((7-((4-nitrobenzyl)carbamoyl)-2H-benzo[b][1,4]oxazine-4(3H)-yl)methyl)-[1,1′-biphenyl]-2-carboxylic acid]
